Measurements published in patent US10124033B2, “Peptides and methods of use” (BAXALTA INCORPORATED, priority 2014, dated 2018).
Read-outs that look alike come from different tables or passages of the source. Residues, ends and D or L forms follow the SMILES beside them.

How the values were obtained:
[1] = target: T1, human full-length Protein S (Homo sapiens, UniProt P07225); assay: Biacore (surface plasmon resonance) on immobilized Protein S; type: binding; settings: for koff: read-out: koff; for kon: read-out: kon
T1 construct: using human full-length Protein S and human GAS6
T1 sequence (P07225 41-676 limits assumed): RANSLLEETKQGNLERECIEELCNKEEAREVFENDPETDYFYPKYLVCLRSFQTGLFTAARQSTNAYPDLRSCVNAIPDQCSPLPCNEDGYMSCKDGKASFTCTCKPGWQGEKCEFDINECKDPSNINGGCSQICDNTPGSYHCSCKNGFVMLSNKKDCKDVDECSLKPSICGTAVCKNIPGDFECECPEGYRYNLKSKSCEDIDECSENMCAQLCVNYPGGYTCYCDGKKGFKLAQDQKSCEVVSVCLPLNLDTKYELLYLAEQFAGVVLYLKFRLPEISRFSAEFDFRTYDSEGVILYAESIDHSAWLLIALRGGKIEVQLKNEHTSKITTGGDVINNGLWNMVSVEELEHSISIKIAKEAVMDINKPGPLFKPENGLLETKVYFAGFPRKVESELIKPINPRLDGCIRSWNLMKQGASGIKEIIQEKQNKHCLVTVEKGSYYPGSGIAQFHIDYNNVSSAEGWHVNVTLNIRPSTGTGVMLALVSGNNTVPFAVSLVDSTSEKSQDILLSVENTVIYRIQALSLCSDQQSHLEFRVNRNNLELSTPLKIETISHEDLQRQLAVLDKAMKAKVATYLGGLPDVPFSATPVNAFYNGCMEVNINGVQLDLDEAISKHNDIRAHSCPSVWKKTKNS
Experimental: (§1) Protein S affinity also was determined via Biacore (Biacore 3000 or Biacore T200) using human full-length Protein S and human GAS6. Briefly, 1000 RU of Protein S or GAS6 were immobilized on a CMS chip. In order to probe the kinetics of Protein S binding peptides to Protein S, the peptides were injected at various concentrations in a HBS-buffer containing 3 mM CaCl2 and 1% DMSO to the flow cell and allowed to interact with the immobilized proteins on the sensor chip. The chip could be regenerated with 4 M MgCl2 in HBS-buffer. Sensorgrams were fitted to a Langmuir binding model for the determination of kon and koff and the calculation of KD. Peptides were tested on their specificity to Protein S with peptide binding studies on the anti-target GAS6.

human GAS6 = target: T2, human GAS6 (Homo sapiens, UniProt Q14393); assay: Biacore binding to anti-target GAS6
T2 sequence (Q14393 31-678): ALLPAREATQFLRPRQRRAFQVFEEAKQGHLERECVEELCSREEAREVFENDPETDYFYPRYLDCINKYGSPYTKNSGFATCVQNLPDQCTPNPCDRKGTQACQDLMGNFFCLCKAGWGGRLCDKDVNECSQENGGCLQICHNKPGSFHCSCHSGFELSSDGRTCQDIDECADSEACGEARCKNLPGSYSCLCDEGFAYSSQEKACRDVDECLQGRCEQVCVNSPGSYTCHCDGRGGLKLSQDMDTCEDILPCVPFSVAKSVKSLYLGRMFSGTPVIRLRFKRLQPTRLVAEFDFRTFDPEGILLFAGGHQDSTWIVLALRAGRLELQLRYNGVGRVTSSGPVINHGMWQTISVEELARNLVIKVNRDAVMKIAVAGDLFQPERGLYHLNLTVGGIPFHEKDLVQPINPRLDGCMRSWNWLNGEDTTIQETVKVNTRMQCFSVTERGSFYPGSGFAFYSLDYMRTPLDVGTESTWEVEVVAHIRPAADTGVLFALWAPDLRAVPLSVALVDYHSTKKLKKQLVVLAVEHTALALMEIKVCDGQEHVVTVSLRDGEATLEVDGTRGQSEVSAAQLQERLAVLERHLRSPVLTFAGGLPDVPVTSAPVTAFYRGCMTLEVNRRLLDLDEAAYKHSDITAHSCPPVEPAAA
Experimental: as §1
Interactions with the anti-target GAS6 were measured via Biacore (surface plasmon resonance) (see Example 2). The maximum signal from the interaction of the peptides with human GAS6 was much lower than the signals obtained with Protein S as interaction partner. Kinetic analysis of the low GAS6 binding signals was error prone, and sensorgrams were reviewed visually to estimate anti-target binding. […] The affinity of JBS2572 for the anti-target was at least 10 times less (indeed, at least 150 times less) than the affinity of the peptides for human Protein S. The data provided by this example confirm that peptides described herein specifically bind Protein S.

CC(=O)N[C@H](C(=O)NCC(=O)N[C@@H](CC(C)C)C(=O)N[C@H](C(=O)N[C@@H](CO)C(=O)N[C@@H](C)C(=O)NCC(=O)N[C@@H](Cc1c[nH]c2ccccc12)C(=O)N[C@@H](Cc1ccc(O)cc1)C(=O)N[C@@H](CC(=O)O)C(=O)N[C@@H](Cc1ccc(O)cc1)C(=O)N[C@@H](CC(N)=O)C(=O)N[C@@H](Cc1ccccc1)C(=O)N[C@@H](CC(=O)O)C(=O)N[C@@H](Cc1c[nH]cn1)C(=O)N[C@@H](Cc1ccc(O)cc1)C(=O)N[C@@H](CCCNC(=N)N)C(=O)N[C@@H](CCC(=O)O)C(=O)N[C@@H](Cc1ccccc1)C(=O)N[C@H](C(N)=O)[C@@H](C)O)C(C)C)[C@@H](C)O [JBS2572] (Ac-TGLVSAGWYDYNFDHYREFT-NH2)
Kd ([1]; 25° C., read-out: KD for binding to Protein S): 6 nM | koff ([1]; 25° C.): 0.00148 s⁻¹ | kon ([1]; 25° C.): 248000 M⁻¹ s⁻¹ | Kd ([1]; 37° C., read-out: KD): 4 nM | koff ([1]; 37° C.): 0.00431 s⁻¹ | kon ([1]; 37° C.): 1.14e+06 M⁻¹ s⁻¹ | Kd ([1]; Biacore, affinity-matured and modified peptides, read-out: KD): 4 nM | affinity for anti-target GAS6 relative to human Protein S (times less) (human GAS6): at least 150 times | binding to GAS6 (human GAS6; 1 μM peptide, sensorgrams reviewed visually): no specific binding
